# Experimental data reported in patent US10851099B2, “Dipeptide piperidine derivatives” (OncoArendi Therapeutics S.A., priority 2018, dated 2020).
# Counter-ions that a name gives are not always drawn.
# Target: T1, recombinant human arginase 1 (Homo sapiens, UniProt P05089)
# T1 construct: made in house; host or cells: E. coli
# T1 sequence (P05089 1-322): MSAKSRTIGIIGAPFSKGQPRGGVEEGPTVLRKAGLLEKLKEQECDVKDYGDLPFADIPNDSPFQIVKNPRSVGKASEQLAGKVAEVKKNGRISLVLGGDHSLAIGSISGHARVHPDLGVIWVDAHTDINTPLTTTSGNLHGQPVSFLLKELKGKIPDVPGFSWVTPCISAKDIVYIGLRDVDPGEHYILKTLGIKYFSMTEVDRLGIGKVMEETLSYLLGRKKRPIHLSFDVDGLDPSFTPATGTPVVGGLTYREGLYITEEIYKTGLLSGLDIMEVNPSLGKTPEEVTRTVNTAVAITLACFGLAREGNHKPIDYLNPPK
# Test: Human arginase inhibition assay (colorimetric urea detection), arginase 1
# Format: biochemical
# Settings: IC50 class, hydrochloride salts, 1 h at 37° C., pH 7.4, 10 mM L-arginine, 200 μM MnCl2, read-out: Activity Class (ARG I)
# Experimental: The inhibitory activities of the compounds of the invention were assessed using recombinant human arginase 1 and 2. Both enzymes were biosynthesized using a prokaryotic expression system (E. coli) and purified by fast protein liquid chromatography (FPLC). The compounds were screened in 96-well plates at the total reaction volume of 100 μL. Briefly, recombinant enzymes were incubated with the tested compounds for 1 h at 37° C. in the reaction buffer (100 mM sodium phosphate buffer, 130 mM NaCl, 1 mg/mL BSA, pH 7.4) containing substrate (10 mM L-arginine hydrochloride) and cofactor (200 μM MnCl2). The assay is based on the detection of urea, which is generated during the conversion of L-arginine into L-ornithine catalyzed by ARG1 or ARG2. The colorimetrically detectable product was developed by adding a mixture of reagent A (4 mM oPA, 50 mM boric acid, 1 M sulfuric acid, 0.03% Brij-35) and reagent B (4 mM NED, 50 mM boric acid, 1 M sulfuric acid, 0.03% Brij-35) in equal proportions. The absorbance for each well was measured at 515 nm and the enzyme inhibition was calculated. The urea production in the absence of any tested compound was considered as maximal enzyme activity. The absorbance at the absence of arginase (background) was subtracted from all the values. Normalized values were analyzed using GraphPad Prism 7.0 software by plotting inhibition curves and determining the IC50 values.
# The inhibitory activity toward humane arginase 1 of the hydrochloride salts of the exemplary compounds according to the invention is presented in Table 5.
row,IC50,SMILES
1,1 to 249 nM,"N=C(N)NCCC[C@H](N)C(=O)N1C[C@@H](CCB2OC(=O)CC(CC(=O)O)(C(=O)O)O2)C[C@](N)(C(=O)O)C1 (stereo partly drawn) [Example 29, (3R,5S)-1-(L-Arginyl)-3-amino-5-(2-(4-carboxy-4-(carboxymethyl)-6-oxo-1,3,2-dioxaborinan-2-yl)ethyl)piperidine-3-carboxylic acid trihydrochloride]"
2,> 10000 nM,"C[C@H](N)C(=O)N1C[C@H](CCB(O)O)C[C@](N)(C(=O)O)C1 [Example 32, (3R,5R)-1-(L-Alanyl)-3-amino-5-(2-boronoethyl)piperidine-3-carboxylic acid dihydrochloride]"
3,250 to 499 nM,"CSCC[C@H](N)C(=O)N1C[C@@H](CCB(O)O)C[C@](N)(C(=O)O)C1 [Example 17, (3R,5S)-1-(L-Methionyl)-3-amino-5-(2-boronoethyl)piperidine-3-carboxylic acid dihydrochloride]"
4,250 to 499 nM,"N[C@@H](Cc1ccc(O)cc1)C(=O)N1C[C@@H](CCB(O)O)C[C@](N)(C(=O)O)C1 [Example 10, (3R,5S)-1-(L-Tyrosyl)-3-amino-5-(2-boronoethyl)piperidine-3-carboxylic acid dihydrochloride]"
5,250 to 499 nM,"NCCC[C@H](N)C(=O)N1C[C@@H](CCB(O)O)C[C@](N)(C(=O)O)C1 [Example 22, (3R,5S)-3-Amino-5-(2-boronoethyl)-1-((S)-2,5-diaminopentanoyl)piperidine-3-carboxylic acid trihydrochloride]"
6,500 to 999 nM,"Cn1cc(C[C@@H](N)C(=O)N2C[C@@H](CCB(O)O)C[C@](N)(C(=O)O)C2)c2ccccc21 [Example 24, (3R,5S)-3-amino-5-(2-boronoethyl)-1-(1-methyl-D-tryptophyl)piperidine-3-carboxylic acid dihydrochloride]"
7,500 to 999 nM,"CC(C)C[C@H](N)C(=O)N1C[C@@H](CCB(O)O)C[C@](N)(C(=O)O)C1 [Example 8, (3R,5S)-1-(L-Leucyl)-3-amino-5-(2-boronoethyl)piperidine-3-carboxylic acid dihydrochloride]"
8,250 to 499 nM,"CC(C)[C@H](N)C(=O)N1C[C@@H](CCB(O)O)C[C@](N)(C(=O)O)C1 [Example 5, (3R,5S)-1-(L-Valyl)-3-amino-5-(2-boronoethyl)piperidine-3-carboxylic acid dihydrochloride]"
9,> 10000 nM,"COC(=O)[C@@]1(N)C[C@H](CCB(O)O)CN(C(=O)[C@H](C)N)C1 [Example 28, (2-((3S,5R)-1-(L-Alanyl)-5-amino-5-(methoxycarbonyl)piperidin-3-yl)ethyl) boronic acid dihydrochloride]"
10,500 to 999 nM,"N[C@@H](CC(=O)O)C(=O)N1C[C@@H](CCB(O)O)C[C@](N)(C(=O)O)C1 [Example 14, (3R,5S)-1-(L-Aspartyl)-3-amino-5-(2-boronoethyl)piperidine-3-carboxylic acid dihydrochloride]"
11,> 10000 nM,"C[C@H](N)C(=O)N1C[C@@H](CCB(O)O)C[C@@](N)(C(=O)O)C1 [Example 33, (3S,5S)-1-(L-Alanyl)-3-amino-5-(2-boronoethyl)piperidine-3-carboxylic acid dihydrochloride]"
12,250 to 499 nM,"CCC[C@H](N)C(=O)N1C[C@@H](CCB(O)O)C[C@](N)(C(=O)O)C1 [Example 25, (3R,5S)-3-Amino-1-((S)-2-aminopentanoyl)-5-(2-boronoethyl)piperidine-3-carboxylic acid dihydrochloride]"
13,250 to 499 nM,"C[C@@H]1N(C(=O)[C@@H](N)CCCNC(=N)N)C[C@@H](CCB(O)O)C[C@]1(N)C(=O)O [Example 31, (2S,3R,5S)-1-(L-Arginyl)-3-amino-5-(2-boronoethyl)-2-methylpiperidine-3-carboxylic acid trihydrochloride]"
14,500 to 999 nM,"CC[C@H](C)[C@H](N)C(=O)N1C[C@@H](CCB(O)O)C[C@](N)(C(=O)O)C1 [Example 9, (3R,5S)-1-(L-Isoleucyl)-3-amino-5-(2-boronoethyl)piperidine-3-carboxylic acid dihydrochloride]"
